How the values were obtained:
Format in all cases: cell-based
[1] = target: T1, human muscarinic M3 receptor (Homo sapiens, UniProt P20309); assay: Alphascreen Surefire phospho-ERK1/2 functional assay, M3; details: for % Emax cf. ACh, M3 / EC50 / pEC50 M3: CHO cells stably expressing human M3; for % Emax cf. ACh, M3 / Emax: Emax compared with ACh; for EC50 / pEC50 M3: agonist 5 min, 37° C.; for EC50: read-out: pEC50 M3 (converted); for Emax: CHO, read-out: % Emax cf. ACh, M3, CHO cells stably expressing human M3
T1 construct: expressed in transfected cells
T1 sequence (P20309 whole entry): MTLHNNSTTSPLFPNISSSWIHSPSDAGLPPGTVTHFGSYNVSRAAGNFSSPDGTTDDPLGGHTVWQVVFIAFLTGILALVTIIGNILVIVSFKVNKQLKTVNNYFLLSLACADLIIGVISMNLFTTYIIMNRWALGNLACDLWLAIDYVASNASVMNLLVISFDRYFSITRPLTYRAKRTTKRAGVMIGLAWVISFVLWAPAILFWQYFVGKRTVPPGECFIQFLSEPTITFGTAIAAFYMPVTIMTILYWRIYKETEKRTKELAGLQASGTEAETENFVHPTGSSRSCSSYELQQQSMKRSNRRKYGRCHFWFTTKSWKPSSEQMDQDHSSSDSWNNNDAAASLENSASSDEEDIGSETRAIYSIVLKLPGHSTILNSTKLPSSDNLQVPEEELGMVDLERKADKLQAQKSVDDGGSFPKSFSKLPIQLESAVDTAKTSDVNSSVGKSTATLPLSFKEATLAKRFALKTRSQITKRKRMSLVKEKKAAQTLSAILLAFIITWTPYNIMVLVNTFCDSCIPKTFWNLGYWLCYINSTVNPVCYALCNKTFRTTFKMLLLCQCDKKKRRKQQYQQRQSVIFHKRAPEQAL
Protocol: (§1) ERK1/2 phosphorylation is a downstream consequence of both Gq/11 and Gi/o protein coupled receptor activation, making it highly suitable for the assessment of M1, M3 (Gq/11 coupled) and M2, M4 receptors (Gi/o coupled), rather than using different assay formats for different receptor subtypes. CHO cells stably expressing the human muscarinic M1, M2, M3 or M4 receptor were plated (25K/well) onto 96-well tissue culture plates in MEM-alpha+10% dialysed FBS. Once adhered, cells were serum-starved overnight. Agonist stimulation was performed by the addition of 5 μL agonist to the cells for 5 min (37° C.). Media was removed and 50 μL of lysis buffer added. After 15 min, a 4 μL sample was transferred to 384-well plate and 7 μL of detection mixture added. Plates were incubated for 2 h with gentle agitation in the dark and then read on a PHERAstar plate reader.
(§2) pEC50 and Emax figures were calculated from the resulting data for each receptor subtype.

[2] = target: T2, human muscarinic M4 receptor (Homo sapiens, UniProt P08173); assay: Alphascreen Surefire phospho-ERK1/2 functional assay, M4; details: for % Emax cf. ACh, M4 / Emax: Emax compared with ACh; for EC50: read-out: pEC50 M4 (converted); for Emax: CHO, read-out: % Emax cf. ACh, M4, CHO cells stably expressing human M4
T2 construct: expressed in transfected cells
T2 sequence (P08173 1-479): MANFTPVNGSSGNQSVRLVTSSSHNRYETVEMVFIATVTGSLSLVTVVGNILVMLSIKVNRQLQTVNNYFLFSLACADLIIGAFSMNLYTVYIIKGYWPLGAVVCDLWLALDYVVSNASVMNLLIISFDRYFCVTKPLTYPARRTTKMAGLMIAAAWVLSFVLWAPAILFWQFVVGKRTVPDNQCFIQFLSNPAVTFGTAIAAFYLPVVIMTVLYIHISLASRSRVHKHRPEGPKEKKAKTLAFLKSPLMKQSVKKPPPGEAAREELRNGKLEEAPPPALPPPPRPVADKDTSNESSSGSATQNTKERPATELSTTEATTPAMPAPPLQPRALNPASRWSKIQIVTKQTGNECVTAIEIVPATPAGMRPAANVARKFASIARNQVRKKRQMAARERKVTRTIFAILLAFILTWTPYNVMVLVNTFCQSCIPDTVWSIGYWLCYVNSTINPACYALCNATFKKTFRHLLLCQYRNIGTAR
Protocol: as §1, §2

[3] = target: T3, human muscarinic M1 receptor (Homo sapiens, UniProt P11229); assay: Alphascreen Surefire phospho-ERK1/2 functional assay, M1; details: for % Emax cf. ACh, M1 / EC50: CHO cells stably expressing human M1; for % Emax cf. ACh, M1 / Emax: Emax compared with ACh; for EC50: agonist 5 min, 37° C., read-out: pEC50 M1 (converted); for Emax: CHO, read-out: % Emax cf. ACh, M1, CHO cells stably expressing human M1
T3 sequence (P11229 1-460): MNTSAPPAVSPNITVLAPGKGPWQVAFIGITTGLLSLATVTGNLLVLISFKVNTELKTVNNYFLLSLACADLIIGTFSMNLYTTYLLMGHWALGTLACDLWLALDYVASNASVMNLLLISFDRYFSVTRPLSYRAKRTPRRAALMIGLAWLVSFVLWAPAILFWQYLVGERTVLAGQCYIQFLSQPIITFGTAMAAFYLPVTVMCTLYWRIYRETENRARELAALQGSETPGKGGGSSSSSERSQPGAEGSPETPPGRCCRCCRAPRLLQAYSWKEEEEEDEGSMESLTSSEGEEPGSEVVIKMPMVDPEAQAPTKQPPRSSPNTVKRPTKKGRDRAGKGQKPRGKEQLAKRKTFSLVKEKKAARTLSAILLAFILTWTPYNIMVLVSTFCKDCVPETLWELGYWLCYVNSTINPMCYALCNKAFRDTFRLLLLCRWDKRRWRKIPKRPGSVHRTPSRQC
Protocol: as §1, §2

[4] = target: T4, human muscarinic M2 receptor (Homo sapiens, UniProt P08172); assay: Alphascreen Surefire phospho-ERK1/2 functional assay, M2; details: for % Emax cf. ACh, M2 / EC50 / pEC50 M2: CHO cells stably expressing human M2; for % Emax cf. ACh, M2 / Emax: Emax compared with ACh; for EC50 / pEC50 M2: agonist 5 min, 37° C.; for EC50: read-out: pEC50 M2 (converted); for Emax: CHO, read-out: % Emax cf. ACh, M2, CHO cells stably expressing human M2
T4 sequence (P08172 1-466): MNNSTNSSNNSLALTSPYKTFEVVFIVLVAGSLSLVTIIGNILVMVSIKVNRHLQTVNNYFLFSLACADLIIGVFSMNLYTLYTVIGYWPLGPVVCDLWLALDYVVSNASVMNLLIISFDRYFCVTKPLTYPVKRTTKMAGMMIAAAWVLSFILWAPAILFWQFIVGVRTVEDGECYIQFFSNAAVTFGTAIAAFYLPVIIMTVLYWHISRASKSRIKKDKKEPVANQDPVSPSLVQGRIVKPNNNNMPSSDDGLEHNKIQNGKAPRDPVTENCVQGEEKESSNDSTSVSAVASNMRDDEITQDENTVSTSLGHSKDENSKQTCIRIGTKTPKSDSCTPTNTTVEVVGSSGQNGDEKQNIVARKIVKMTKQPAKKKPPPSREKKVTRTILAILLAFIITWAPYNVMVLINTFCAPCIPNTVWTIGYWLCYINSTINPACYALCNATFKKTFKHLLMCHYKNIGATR
Protocol: as §1, §2

[5] = CHO cells stably expressing human M4
[6] = CHO cells stably expressing human M4, agonist 5 min, 37° C.

| SMILES | % Emax cf. ACh, M3 [1] | EC50 [1] | % Emax cf. ACh, M4 [2, 5] | EC50 [2, 6] | % Emax cf. ACh, M1 [3] | EC50 [3] | % Emax cf. ACh, M2 [4] | EC50 [4] | pEC50 M3 [1] | pEC50 M2 [4] | Emax [1] | Emax [2] | Emax [3] | Emax [4] | pEC50 M4 [2, 6] |
| --- | --- | --- | --- | --- | --- | --- | --- | --- | --- | --- | --- | --- | --- | --- | --- |
| CCOC(=O)N1CCC2(CC(N3CCC(C(CC)=NOC)CC3)C2)C1 (single isomer, unassigned) [2-2 Isomer 3] | 2% | > 20000 nM | 67% | 50.1 nM | 5% | > 20000 nM | 7% | > 20000 nM |  |  |  |  |  |  |  |
| CCOC(=O)N1CCC2(CC(N3CCC(C(CC)=NOC)CC3)C2)C1 (single isomer, unassigned) [2-2 Isomer 4] | 18% |  | 105% | 20 nM | 59% | 200 nM | 69% |  | < 4.7 | < 4.7 |  |  |  |  |  |
| CCCC(=NOC)C1CCN([C@H]2CCCN(C(=O)OCC)CC2)CC1 (single isomer, unassigned) [(S)-1-3 Isomer 2] |  | > 20000 nM |  | 25.1 nM |  | 251 nM |  | > 20000 nM |  |  | 0% | 126% | 93% | 7% |  |
| CCOC(=O)N1CCCC(N2CCC(C(=NOC)C(C)C)CC2)CC1 (single isomer, unassigned) [1-4 Isomer 2 (racemic)] | 6% | > 15800 nM | 107% | 31.6 nM | 95% | 316 nM | 7% | > 15800 nM |  |  |  |  |  |  |  |
| CCOC(=O)N1CCCC(N2CCC(C(C#N)=NOC(C)C)CC2)CC1 (mixture of isomers) [4-1 Mixture of isomers] |  | > 20000 nM |  | 79.4 nM |  | 100 nM |  | > 20000 nM |  |  | 5% | 72% | 109% | 4% |  |
| CCCC(=NOC)C1CCN(C2CC3(CCN(C(=O)OCC)C3)C2)CC1 (single isomer, unassigned) [2-3 Isomer 4] |  | > 20000 nM |  | 25.1 nM |  | 158 nM |  | > 20000 nM |  |  | 7% | 77% | 87% | 15% |  |
| CCOC(=O)N1CCC[C@H](N2CCC(C(C)=NOC)CC2)CC1 (single isomer, unassigned) [(S)-1-1 Isomer 2] |  | > 20000 nM | 62% |  | 49% | 501 nM |  | > 20000 nM |  |  | 0% |  |  | 7% | 6.7 |
| CCOC(=O)N1CCCC(N2CCC(C(CC)=NOC(C)C)CC2)CC1 (single isomer, unassigned) [1-12 Isomer 1 (racemic)] | 6% | > 20000 nM | 80% | 63.1 nM | 98% | 100 nM | 5% | > 20000 nM |  |  |  |  |  |  |  |
| CCCC(=NOC)C1CCN(C2CCCN(C(=O)OCC)CC2)CC1 (single isomer, unassigned) [1-3 Isomer 2 (racemic)] |  | > 20000 nM | 83% | 50.1 nM | 92% | 63.1 nM |  | > 20000 nM |  |  | 17% |  |  | 21% |  |
| CCOC(=O)N1CCCC(N2CCC(C(CC)=NOC(C)C)CC2)CC1 (single isomer, unassigned) [1-12 Isomer 2 (racemic)] | 1% |  | 101% | 25.1 nM | 72% | 316 nM | 2% |  | < 4.7 | < 4.7 |  |  |  |  |  |
